Test results: patent publication US20200370080A1, “ENANTIONSELECTIVE ENZYMATIC SULFOXIDATION OF CHIRAL ARYLSULFIDES” (Bayer Aktiengesellschaft, priority 2017, published 2020)

Assays:
[1] = system: styrene monooxygenase StyA/StyB from A. baylyi; assay: in vitro sulfoxidation of arylsulfide substrates by purified StyA (oxygenase) with excess StyB (reductase), HPLC analysis; format: biochemical, Acinetobacter baylyi sp. ADP1; settings: for ee %: enantiomeric excess of sulfoxide formed, abs. configuration S; for yield %): enzymatic conversion to sulfoxide, 2 mM substrate (1 mM in case of clouding), purified StyA with excess StyB
Procedure: In order to do so, the StyA unit from Acinetobacter sp. ADP1 was cloned into a pET-vector inducible with IPTG and expressed in E. coli BL21 pLysS grown in LB medium (10 g/l tryptone, 5 g/l yeast extract, 10 g/l or 20 g/l NaCl, 100 μg/ml ampicillin, 50 μg/ml Chloramphenicol). For the expression a 5 ml overnight culture was used as inoculum for a fermenter with […] or a flask with 500 ml medium. The cells were cultured at 37° C. until the culture reached an optical density of 0.6 which was the threshold for induction of recombinant gene expression using IPTG (0.1 mM). The culture was performed for another 18 h at 20° C. […] The cells were harvested and the cellular walls were disrupted using a French press. […] The target protein was purified for the subsequent characterization.
The StyB unit from Acinetobacter baylyi sp. ADP1 was expressed in a similar fashion.
In order to test the activity the StyB unit (reductase) was employed in excess to supply the StyA unit (oxygenase) with sufficient reduced FAD. Therefore, NADH was produced by a format-dehydrogenase from format and NAD in the respective enzymatic reaction.
The enzyme conversion rate was probed every minute for 15 min for the kinetic analysis. If possible, i.e. soluble, 2 mM substrate were employed. In case of clouding 1 mM substrate was employed. The substrate was dissolved in ethanol. Reactions in the probes were stopped with a 1:1 mixture of ice-cold methanol and acetonitrile and afterwards analyzed using HPLC.
The educt and the product were analyzed on an Agilent 1100 HPLC device.

E. coli cells = assay: toxicity of educt and product: growth of the production strain at different concentrations; format: cell-based
Procedure: A person skilled in the art knows how to determine the maximum rate at which the enzyme can process the substrate and thus how much substrate can be added to a given reaction continuously or in a given time interval. To understand the toxicity of educt and product the growth rate of the production strain is determined in presence of different educt and product concentration.

[2] = resting cell activity of whole-cell biocatalyst (E. coli JM101 pStyAB_ADP1_lac); format: cell-based; settings: E. coli JM101, M9 minimal medium, 4.8 h after induction with 1 mM IPTG
Procedure: In detail, the styrene monooxygenase subunits StyA and StyB were expressed in E. coli JM101 cultivated in M9 minimal medium from the pStyAB_ADP1_lac vector. To find the maximum specific activity samples were taken after previously defined time points after addition of the inducer (1 mM IPTG). Cells were retrieved from the actively growing culture and used for the determination of the resting cell activity. As shown in FIG. 3 the specific activity increased steadily from the time point of induction and reached a maximum of 450±30 U/gcdw 4.8 h after induction.
In detail, the specific activity was quantified as follows: StyA and StyB were expressed in E. coli JM101 carrying the pStyAB_ADP1_lac vector. Cells were cultivated in M9 minimal medium and induced at an OD of 0.6-0.8. […]
Successful separation of the product i.e. the S-enantiomer of 2-chloro-4-(methylsulfinylmethyl)pyridine was achieved on a Dionex UltiMate 3000 HPLC system (Thermo Scientific) equipped with a non-polar HPLC column with C18 matrix (Accucore C18, 3×150 mm, 2.6 μm particle size, Thermo Scientific). […] The organic compounds were detected by absorption using diode array detector (DAD) at a wavelength of 210 nm. […]

Molecule	ee % [1] [%]	yield %) [1] [%]	other results
CSc1ccc(Cl)cc1 [p(Cl)—Ph—S—CH3, 4-chlorophenyl methyl sulfide]	95.5	34	–
C=CSc1ccccc1 [Ph—S—CH═CH2, phenyl vinyl sulfide]	99.7	40	–
CSc1ccc(Br)cc1 [p(Br)—Ph—S—CH3, 4-bromophenyl methyl sulfide]	98.1	58	–
CSCc1ccnc(Cl)c1 [2-chloro-4-(methylsulfanylmethyl)pyridine]	–	–	substrate concentration that entirely inhibited the growth of the cells (E. coli cells; E. coli cells expressing StyA and StyB): above 10 mM
C[S@+]([O-])Cc1ccnc(Cl)c1 [2-Chloro-4-((methyl-S-sulfinyl)methyl)pyridine]	–	–	toxicity of the product compared with the substrate (E. coli cells; E. coli cells): significantly lower
CSc1ccc(C)cc1 [p(CH3)—Ph—S—CH3, 4-methylphenyl methyl sulfide]	97.6	42	–
CSc1ccc(F)cc1 [p(F)—Ph—S—CH3, 4-fluorophenyl methyl sulfide]	99.0	55	–
CSc1ccccc1 [Ph—S—CH3, phenyl methyl sulfide]	99.3	48	–
styrene monooxygenase subunits StyA and StyB: two-component styrene monooxygenase (SEQ ID NO 5 and 6) expressed in E. coli JM101 from the pStyAB_ADP1_lac vector (protein, listed as Acinetobacter baylyi) chain 1: MRRIAIVGAGQSGLQLGLSLLDTGYDVTIVTNRTADQIRQGKVMSSQCMFHTALQTERDVGLNFWEEQCPAVEGIGFTLVSPETGKPAFSWSARLERYAQSVDQRVKMPYWIEEFERRGGKLIIQDVGIDELEQLTTEYELVLLAAGKGEVVKQFVRDDERSTFDKPQRALALTYVTGMKPMSPYSRVTFNVIPGVGEYFCFPALTVTGPCEIMVFEGIPGGPMDCWQDAKTPEQHLQMSKDILNTYLPWEAERCENIEITDAGGYLAGRFPPSVRKPILTLPSGRQVFGMADALVVNDPITGQGSNNAAKCSKIYFDAILAHDTQSFTPEWMQQTFERYWSYAEKVVAWTNSLLVPPQPQMIDVLAAASQNQAIASTIANNFDDPRNFSPWWFDAEQAQHFIESKSCQKVA chain 2: MNINTSHELGLKPIDTENPREIRNLLGQFATGVTVITTRGRDGRKIGMTANSFSSLSLDPPLILWSLSKTAPSLPDFTEAEYFAIHMLAQEHHSLSGHFARGSEDKFASIAHRECERGLPLLEDVLATLVCKNINQYEGGDHLIFIGQIEHYQQRIGEPLVFHAGKYRIAAEHPELSA	–	–	maximum specific activity [2]: 450±30 U/gcdw
